Results taken from US20050180954A1, “Drug for treating bone disorders” (priority 1995, published 2005).

Key:
Assay type in all cases: cell-based, mouse
[1] = tested on: MC3T3-E1 cells; assay: Mineralization of murine osteoblasts, Von Kossa stain (in vitro single administration); conditions: Day 14
Method: As the parameters for evaluation of differentiation ability, alkaline phosphatase (ALPase) and mineralization were employed. Detection of alkaline phosphatase which is a marker of differentiation of osteoblasts was carried out on Day 8 from the beginning of the culturing by staining method. Evaluation of mineralization was carried out as follows. That is, MC3T3-E1 cells were placed in each well of 24-well plates in an amount of 50,000 cells/ml (10 times in the case of anti-cell test in Example 3). On Day 4, after confirming that the cells sufficiently reached confluency, the medium was discarded and fresh α-MEM containing 10% JCS, 50 μg/ml of L-ascorbic acid and 10 mM β-glycerophosphate was added in an amount of 0.9 ml/well, followed by adding medium containing varying concentration of IFN. Four days later, the medium was replaced with IFN-free medium, and the medium was replaced with IFN-free medium every 4 days. On Day 14, Von Kossa stain was performed to visualize the calcified foci. Expression of alkaline phosphatase activity which is a differentiation marker is an indispensable step to the subsequent mineralization.

[2] = tested on: osteoclast like cells from bone marrow cells of mice of ddy strain; assay: Formation of osteoclast like cells from bone marrow cells of mice of ddy strain
Method: Bone marrow cells were prepared in accordance with the method by Takahashi et al (Takahashi, N. et al., Endocrinology, 122, 1373, 1988). Male mice of ddy strain of 7 weeks old were exanguinated to death under ether anesthesia and the femur and the tibia of hind legs were collected from each mouse. The connective tissues on the surfaces of the bones were carefully removed, and both ends of each bone were cut off with scissors. The bone marrow cells were suspended in α-Minimum Essential Medium (α-MEM, Nissui Pharmaceuticals Co.) containing 10% pre-colostrum new born calf serum (Mitsubishi Chemical, hereinafter referred to as “JCS” for short) and the suspension was flushed out through a 25 G needle attached to a syringe to collect the suspension in a centrifugal tube. The collected suspension was washed by centrifugation in the same medium at 2000 rpm at 4° C. for 5 minutes. The precipitated cells were dispersed in the above-mentioned medium and the washing by centrifugation was repeated twice, thereby preparing bone marrow cells. Murine IFN-α (hereinafter referred to as “MuIFNα” for short), Lot. B13010, 106 units/ml/vial (Calbiochem-Novabiochem International, San Diego, Calif.), murine IFN-β (hereinafter referred to as “MuIFNβ” for short), Lot M-0034, 10 units/ml/vial (Toray Industries, Inc.) and murine IFNγ (hereinafter referred to as “MuIFNγ” for short), Lot 254F3, 2.06×10^6 units/ml (Genentech, Calif.) were respectively dissolved in 10% JCS-containing α-MEM (Nissui Pharmaceuticals Co.) to the desired concentrations. Active vitamin D3 ([…], Wako Pure Chemical Industries, Ltd., hereinafter referred to as “Vit D3” for short) was dissolved in argon-saturated ethanol, and the obtained solution was diluted so as to attain the final ethanol concentration of 0.1% in all of the culture systems.
(§1) The number of viable bone marrow cells was counted using tripam blue dye exclusion test and the bone marrow cells were diluted with α-MEM containing 10% JCS, 10^−8M Vit D3, 10^−7 M dexamethasone to a population density of 1.5×10^6 cells/ml, followed by placing the resulting suspension in each well in 24-well plates in an amount of 0.45 ml/well. To each well, 50 μl of the medium containing varying concentration of IFN was added to make the volume to 0.5 ml/well and culturing was begun. At every three days, 0.4 ml of the culture medium was removed from each well and 0.4 ml of fresh medium (the above-mentioned medium containing the respective concentration of IFN) was added. On Day 8 from the beginning of the culturing, the medium was removed and the cells were fixed with mixed solution of ethyl alcohol and diethyl ether (1:1) and the cells were stained with tartrate resistant acid phosphatase (TRAP), followed by counting TRAP positive multinuclear cells with a phase contrast microscope. […] The inhibition effect of IFNγ was stronger than that of IFNβ. That is, the inhibition concentration IC50 of IFNγ was not more than 0.1 units/ml, and that of IFNβ was 0.2 units/ml.
The effects of the three murine IFNs, that is, MuIFNβ, γ and α in terms of abilities to inhibit formation of osteoclast like cells from bone marrow cells in mice of ddy strain were compared. The test was carried out as in Example 1. All of the murine IFNs inhibited the formation of osteoclast like cells, and the effect was strong in the order of γ, β and α. […] Thus, the activity of IFNα to inhibit formation of osteoclasts was about 1/20 of that of IFNβ and about not more than 1/100 of that of IFNγ.

[3] = tested on: MC3T3-E1 cells; assay: Quantification of calcium in calcified foci of MC3T3-E1; conditions: MC3T3-E1, Day 14
Method: MC3T3-E1 cells were placed in each well in 24-well plates in an amount of 50,000 cells/well and cultured to confluency. The medium was removed and fresh α-MEM containing 10% JCS, 50 μg/ml of L-ascorbic acid and 10 mM β-glycerophosphate was added in an amount of 0.9 ml/well, followed by adding 0.1 ml/well of medium containing varying concentration of IFN. The medium was replaced with IFN-free medium every 4 days. On Day 14, the medium was removed and the cells were lightly washed with Hank's solution. Anhydrous ethanol was added in an amount of 1 ml/well and fixation was carried out at room temperature for 15 minuets. Then the anhydrous ethanol was replaced with fresh anhydrous ethanol in an amount of 1 ml/well and 5 minutes later, each well was dried in the air. Then 1N hydrochloric acid was added in an amount of 1 ml/well and extraction was carried out at room temperature for 30 minutes. The total contents of each well were transferred to an Eppendorf tube and centrifuged at 1800×g at 4° C. for 10 minutes The amount of calcium in the supernatant was measured by Calcium C Test Wako and the amount of inorganic phosphorus in the supernatant was measured by Phospha B Test Wako. […] The IC50 value was as low as about 10 units/ml (FIG. 5).

[4] = tested on: osteoclast like cells from bone marrow cells of mice of C 57 BL/6 strain; assay: Formation of osteoclast like cells from bone marrow cells of mice of C 57 BL/6 strain; conditions: Example 2, C 57 BL/6 strain bone marrow cells
Method: as §1
In place of mice of ddy strain, male mice of C 57 BL/6 of 7 weeks old were used. The mice were exanguinated to death under ether anesthesia and the femur and the tibia of hind legs were collected from each mouse. The connective tissues on the surfaces of the bones were carefully removed, and both ends of each bone were cut off with scissors. The bone marrow cells were suspended in α-MEM containing 10% JCS and the suspension was flushed out through a 25 G needle attached to a syringe to collect the suspension in a centrifugal tube. The collected suspension was washed by centrifugation in the same medium at 2000 rpm at 4° C. for 5 minutes. The precipitated cells were dispersed in the above-mentioned medium and the washing by centrifugation was repeated twice. Formation of osteoclast like cells was measured by the same method as in Example 1.

[5] = tested on: MC3T3-E1 cells; assay: Proliferation of murine osteoblastic cells MC3T3-E1 (in vitro single administration)
Method: Murine osteoblast like cells MC3T3-E1 originated from C 57 BL/6 mouse (Kodama et al., Jap. J. Oral Biol., 23, 899, 1982) were washed with PBS(−) and the cells were dissociated by incubation in PBS(−) containing 0.1% pronase (Actinase E, Kaken Pharmaceuticals Co.), followed by dispersing the cells in α-MEM containing 10% JCS and 50 μg/ml of L-ascorbic acid (ASA). The ability to promote proliferation of cells was evaluated as follows. That is, MC3T3-E1 cells were placed in each well in 24-well plates (Corning) in an amount of 5000 cells/well. Then each IFN dilution was added to each well in an amount of 0.1 ml/well, and the culturing was begun. On Day 2, the medium was removed and the each IFN dilution was added in an amount of 0.5 ml/well (total amount of liquid: 0.5 ml/well). On Day 6, the medium was removed and the cells were washed with PBS(−) and a mixed enzyme solution of 0.1% pronase/0.1% collagenase was added to each well in an amount of 200 μl/well, followed by allowing to react at 37° C. for 15 minutes. Then α-MEM containing 10% fetal calf serum (Gibco, hereinafter referred to as “FCS” for short) was added in an amount of 300 μl/well to disperse the cells therein and the number of the cells was counted with a Coulter counter.

Question: How did the “concentration at which the inhibition effect on mineralization was expressed” value [1] turn out when “MuIFNγ: murine interferon γ, standard product Lot 254F3, provided by Genentech” was run?
Answer: Its value is 10 units/ml.

Question: And the “influence on mineralization (calcified foci, Von Kossa stain)” value [1]?
Answer: The value was “strong and dose dependent inhibition action on mineralization”.

Question: And the “IC50 value of inhibition of mineralization” value ([1]; Von Kossa)?
Answer: The value was 3-4 units/ml.

Question: What about the “inhibition of formation of osteoclast like cells” value ([2]; Example 1, Day 8, TRAP positive multinuclear cells) of the same substance?
Answer: Its value is “strongly inhibited formation of osteoclast like cells”.

Question: What about the “inhibition concentration IC50 of formation of osteoclast like cells” value ([2]; Example 1, Vit D3 + dexamethasone, Day 8, TRAP positive multinuclear cells) of the same substance?
Answer: Its value is “not more than 0.1 units/ml”.

Question: And the “IC50 of inhibition of formation of osteoclast like cells” value ([2]; Example 8 comparison of three murine IFNs)?
Answer: Its value is “not more than 0.1 units/ml”.

Question: What about the “calcium deposition smaller than the control” value ([3]; 1000 units/ml) of the same substance?
Answer: The value was 70%.

Question: And the “IC50 value of inhibition of calcium deposition” value [3]?
Answer: Its value is “about 10 units/ml”.

Question: And the “inhibition of formation of osteoclast like cells” value [4]?
Answer: Its value is “strongly inhibited formation of osteoclast like cells”.

Question: What about the “IC50 of formation inhibition of osteoclast like cells” value ([4]; Day 8) of the same substance?
Answer: Its value is 1.5 units/ml.

Question: And the “inhibition of proliferation of MC3T3-E1 cells” value ([5]; 10,000 units/ml, cell count on Day 6)?
Answer: Its value is “about 30%”.

Question: And the “dose from which slight inhibition of proliferation was observed” value ([5]; MC3T3-E1, Day 6)?
Answer: The value was 1 unit/ml.
